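Tested at 5 concentrations; 48 h exposure; 96-well plates; endpoints linearly interpolated, else capped at highest concentration. At the GI50, growth is halved.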 The source made the active and inactive calls. No stated cut-off is given here; in the data, active = GI50 up to about 1.1 µM and inactive = higher.
Legend:
Test in all cases: DTP human tumour cell line panel, 48 h
786-0 = test system: 786-0
A498 = test system: A498
A549 = test system: A549
ACHN = test system: ACHN
BT-549 = test system: BT-549
CAKI-1 = test system: CAKI-1
CCRF-CEM = test system: CCRF-CEM
COLO 205 = test system: COLO 205
DU-145 = test system: DU-145
EKVX = test system: EKVX
HCT-116 = test system: HCT-116
HCT-15 = test system: HCT-15
HL-60 = test system: HL-60
HOP-62 = test system: HOP-62
HOP-92 = test system: HOP-92
HT-29 = test system: HT-29
Hs-578T = test system: Hs-578T
IGROV-1 = test system: IGROV-1
K562 = test system: K562
KM12 = test system: KM12
LOX IMVI = test system: LOX IMVI
M14 = test system: M14
MDA-MB-231 = test system: MDA-MB-231
MDA-MB-435 = test system: MDA-MB-435
MDA-N = test system: MDA-N
MOLT-4 = test system: MOLT-4
Malme-3M = test system: Malme-3M
NCI-H226 = test system: NCI-H226
NCI-H23 = test system: NCI-H23
NCI-H460 = test system: NCI-H460
NCI-H522 = test system: NCI-H522
NCI/ADR-RES = test system: NCI/ADR-RES
OVCAR-3 = test system: OVCAR-3
OVCAR-5 = test system: OVCAR-5
OVCAR-8 = test system: OVCAR-8
PC-3 = test system: PC-3
RPMI-8226 = test system: RPMI-8226
RXF 393 = test system: RXF 393
SF-268 = test system: SF-268
SF-295 = test system: SF-295
SF-539 = test system: SF-539
SK-MEL-28 = test system: SK-MEL-28
SK-MEL-2 = test system: SK-MEL-2
SK-MEL-5 = test system: SK-MEL-5
SK-OV-3 = test system: SK-OV-3
SN12C = test system: SN12C
SNB-19 = test system: SNB-19
SNB-75 = test system: SNB-75
SW-620 = test system: SW-620
T47D = test system: T47D
TK-10 = test system: TK-10
U-251 = test system: U-251
UACC-257 = test system: UACC-257
UACC-62 = test system: UACC-62
UO-31 = test system: UO-31
MCF7 = test system: MCF7
OVCAR-4 = test system: OVCAR-4
SR = test system: SR

## CC1=NNC(=O)C1C1CC(c2c[nH]c3ccccc23)=NN=C1Cl (configuration not stated)
786-0
  GI50: 49.9 µM (inactive)
A498
  GI50: > 100 µM (inactive)
A549
  GI50: 57.4 µM (inactive)
ACHN
  GI50: 86.1 µM (inactive)
BT-549
  GI50: 37 µM (inactive)
CAKI-1
  GI50: > 100 µM (inactive)
CCRF-CEM
  GI50: 25.8 µM (inactive)
COLO 205
  GI50: 28.1 µM (inactive)
DU-145
  GI50: > 100 µM (inactive)
EKVX
  GI50: 70.8 µM (inactive)
HCT-116
  GI50: 44.3 µM (inactive)
HCT-15
  GI50: 35.8 µM
HL-60
  GI50: 20 µM (inactive)
HOP-62
  GI50: > 100 µM (inactive)
HOP-92
  GI50: > 100 µM (inactive)
HT-29
  GI50: 40.9 µM (inactive)
Hs-578T
  GI50: 61.8 µM (inactive)
IGROV-1
  GI50: 20.6 µM (inactive)
K562
  GI50: 28.4 µM (inactive)
KM12
  GI50: 21.9 µM (inactive)
LOX IMVI
  GI50: 33.3 µM (inactive)
M14
  GI50: 53.5 µM (inactive)
MDA-MB-231
  GI50: 46.6 µM (inactive)
MDA-MB-435
  GI50: 48.9 µM (inactive)
MDA-N
  GI50: 54.7 µM (inactive)
MOLT-4
  GI50: 24.2 µM (inactive)
Malme-3M
  GI50: > 100 µM (inactive)
NCI-H226
  GI50: 74.1 µM (inactive)
NCI-H23
  GI50: 39.4 µM (inactive)
NCI-H460
  GI50: 34.6 µM (inactive)
NCI-H522
  GI50: 45.8 µM (inactive)
NCI/ADR-RES
  GI50: > 100 µM (inactive)
OVCAR-3
  GI50: 62.1 µM (inactive)
OVCAR-5
  GI50: > 100 µM (inactive)
OVCAR-8
  GI50: > 100 µM (inactive)
PC-3
  GI50: 56.5 µM (inactive)
RPMI-8226
  GI50: 23.7 µM (inactive)
RXF 393
  GI50: 45.8 µM (inactive)
SF-268
  GI50: 55.6 µM (inactive)
SF-295
  GI50: 53.1 µM (inactive)
SF-539
  GI50: 55.6 µM (inactive)
SK-MEL-28
  GI50: 87.5 µM (inactive)
SK-MEL-2
  GI50: > 100 µM (inactive)
SK-MEL-5
  GI50: 42.8 µM (inactive)
SK-OV-3
  GI50: > 100 µM (inactive)
SN12C
  GI50: 82 µM (inactive)
SNB-19
  GI50: 40.9 µM (inactive)
SNB-75
  GI50: 75 µM (inactive)
SW-620
  GI50: 63.5 µM (inactive)
T47D
  GI50: 36.2 µM (inactive)
TK-10
  GI50: > 100 µM (inactive)
U-251
  GI50: 43.6 µM (inactive)
UACC-257
  GI50: > 100 µM (inactive)
UACC-62
  GI50: 85.7 µM (inactive)
UO-31
  GI50: 31.2 µM (inactive)

## [O-][S+](c1ccccc1)c1ccc(/N=N/O)nc1 (configuration not stated)
786-0
  GI50: > 100 µM (inactive)
A498
  GI50: > 100 µM (inactive)
A549
  GI50: > 100 µM (inactive)
ACHN
  GI50: > 100 µM (inactive)
BT-549
  GI50: > 100 µM (inactive)
CAKI-1
  GI50: > 100 µM (inactive)
CCRF-CEM
  GI50: > 100 µM (inactive)
COLO 205
  GI50: > 100 µM (inactive)
DU-145
  GI50: > 100 µM (inactive)
EKVX
  GI50: > 100 µM (inactive)
HCT-116
  GI50: > 100 µM (inactive)
HCT-15
  GI50: > 100 µM
HL-60
  GI50: > 100 µM (inactive)
HOP-62
  GI50: > 100 µM (inactive)
HT-29
  GI50: > 100 µM (inactive)
Hs-578T
  GI50: > 100 µM (inactive)
IGROV-1
  GI50: > 100 µM (inactive)
K562
  GI50: > 100 µM (inactive)
KM12
  GI50: > 100 µM (inactive)
M14
  GI50: > 100 µM (inactive)
MCF7
  GI50: > 100 µM (inactive)
MDA-MB-231
  GI50: > 100 µM (inactive)
MDA-N
  GI50: > 100 µM (inactive)
MOLT-4
  GI50: > 100 µM (inactive)
Malme-3M
  GI50: 0.492 µM (active)
NCI-H226
  GI50: 69.8 µM (inactive)
NCI-H23
  GI50: > 100 µM (inactive)
NCI-H460
  GI50: > 100 µM (inactive)
NCI-H522
  GI50: > 100 µM (inactive)
NCI/ADR-RES
  GI50: > 100 µM (inactive)
OVCAR-3
  GI50: > 100 µM (inactive)
OVCAR-4
  GI50: > 100 µM (inactive)
OVCAR-5
  GI50: > 100 µM (inactive)
OVCAR-8
  GI50: > 100 µM (inactive)
PC-3
  GI50: 78.5 µM (inactive)
RXF 393
  GI50: 0.213 µM (active)
SF-268
  GI50: > 100 µM (inactive)
SF-295
  GI50: > 100 µM (inactive)
SF-539
  GI50: > 100 µM (inactive)
SK-MEL-28
  GI50: > 100 µM (inactive)
SK-MEL-5
  GI50: > 100 µM (inactive)
SK-OV-3
  GI50: > 100 µM (inactive)
SN12C
  GI50: > 100 µM (inactive)
SNB-19
  GI50: > 100 µM (inactive)
SNB-75
  GI50: > 100 µM (inactive)
SR
  GI50: > 100 µM (inactive)
SW-620
  GI50: > 100 µM (inactive)
T47D
  GI50: 82.6 µM (inactive)
TK-10
  GI50: > 100 µM (inactive)
U-251
  GI50: > 100 µM (inactive)
UACC-257
  GI50: > 100 µM (inactive)
UACC-62
  GI50: > 100 µM (inactive)
UO-31
  GI50: > 100 µM (inactive)

## O=S(=O)(/N=C(\NO)Nc1ccc(Cl)cc1)c1cccc2nsnc12
786-0
  GI50: 21.6 µM (inactive)
A549
  GI50: 45.5 µM (inactive)
ACHN
  GI50: 34.4 µM (inactive)
BT-549
  GI50: 28.6 µM (inactive)
CAKI-1
  GI50: 12.9 µM (inactive)
CCRF-CEM
  GI50: 26.1 µM (inactive)
COLO 205
  GI50: 32.4 µM (inactive)
DU-145
  GI50: 41.3 µM (inactive)
EKVX
  GI50: 26.2 µM (inactive)
HCT-116
  GI50: 32 µM (inactive)
HCT-15
  GI50: 18.3 µM
HL-60
  GI50: 13.4 µM (inactive)
HOP-62
  GI50: > 100 µM (inactive)
HOP-92
  GI50: 22.1 µM (inactive)
HT-29
  GI50: 39.2 µM (inactive)
Hs-578T
  GI50: 29.2 µM (inactive)
IGROV-1
  GI50: 28.1 µM (inactive)
K562
  GI50: 19.7 µM (inactive)
KM12
  GI50: 31 µM (inactive)
LOX IMVI
  GI50: 20.3 µM (inactive)
M14
  GI50: 35.4 µM (inactive)
MDA-MB-231
  GI50: 77.1 µM (inactive)
MDA-MB-435
  GI50: 23 µM (inactive)
MDA-N
  GI50: 54.1 µM (inactive)
MOLT-4
  GI50: 12.8 µM (inactive)
Malme-3M
  GI50: 21.2 µM (inactive)
NCI-H226
  GI50: 81.1 µM (inactive)
NCI-H23
  GI50: 45.2 µM (inactive)
NCI-H460
  GI50: 38.7 µM (inactive)
NCI-H522
  GI50: 11 µM (inactive)
NCI/ADR-RES
  GI50: 46 µM (inactive)
OVCAR-3
  GI50: 18.7 µM (inactive)
OVCAR-4
  GI50: 13.7 µM (inactive)
OVCAR-5
  GI50: 26.9 µM (inactive)
OVCAR-8
  GI50: 34.3 µM (inactive)
PC-3
  GI50: 30.3 µM (inactive)
RXF 393
  GI50: 19.6 µM (inactive)
SF-268
  GI50: 34.4 µM (inactive)
SF-295
  GI50: 57.9 µM (inactive)
SF-539
  GI50: 59.3 µM (inactive)
SK-MEL-28
  GI50: 18.7 µM (inactive)
SK-MEL-2
  GI50: 16.4 µM (inactive)
SK-MEL-5
  GI50: 14.8 µM (inactive)
SK-OV-3
  GI50: 76.2 µM (inactive)
SN12C
  GI50: 21.9 µM (inactive)
SNB-19
  GI50: 94.4 µM (inactive)
SNB-75
  GI50: 31.8 µM (inactive)
SW-620
  GI50: 31.8 µM (inactive)
T47D
  GI50: 48.1 µM (inactive)
TK-10
  GI50: 55.7 µM (inactive)
U-251
  GI50: 31.6 µM (inactive)
UACC-257
  GI50: 31 µM (inactive)
UACC-62
  GI50: 21.6 µM (inactive)
UO-31
  GI50: 65.2 µM (inactive)

Reference: ChEMBL document CHEMBL1201862, “PubChem BioAssay data set” (2004)
